Patent US8858934B2, “Method for producing cells having characteristics of hepatocytes” (priority 2010, dated 2014)

Tested on: cells of the present invention (Metaheps)
Assay: Long-term toxicity in the cells of the present invention (LDH release over 15 days)
Assay type: cell-based, human
Conditions: Metaheps incubated 15 days with low concentrations (diclofenac 50 μM, acetaminophen 500 μM)
Protocol: On incubation days 1, 3, 6, 8, 10, 13 and 15 medium samples were drawn and LDH activity in media was determined using the Cytotoxicity Kit from Promega. LDH release was calculated in % as 100×(LDH in media/LDH media+LDH lysate).

SMILES | toxicity in Metaheps as measured by LDH release
CC(=O)Nc1ccc(O)cc1 [acetaminophen] | acute toxicity
O=C(O)Cc1ccccc1Nc1c(Cl)cccc1Cl [diclofenac] | long-term toxicity
